Measurements as given in patent US20180028498A1, “A PHARMACEUTICAL COMPOSITION FOR THE PARENTERAL ADMINISTRATION OF MELATONIN, AND A PROCESS FOR ITS PREPARATION” (INDUSTRIA FARMACEUTICA GALENICA SENESE S.R.L., priority 2015, published 2018).

Legend:
[1] = Solubility / maximum concentration of melatonin in solvent; format: physicochemical; conditions: physiological saline solution, no excipients, co-solvents or diluents
Excerpt: There are moreover disclosed in the literature injectable formulations of melatonin, that are in general solutions of melatonin in ethanol or in propylene glycol, then diluted with water. As a matter of fact, melatonin is known to be a substance that dissolves in aqueous media with great difficulties.
The present pharmaceutical compositions in the form of an aqueous solution, thanks to the process of preparation of the invention described in detail in the following, may contain, dissolved in aqueous solution, amounts of melatonin that are relatively high and suitable for the dosages required in medical treatments; the concentration of melatonin in the present compositions is indeed comprised between 0.2 and 0.4 mg/ml, this latter being the maximum value of concentration obtained for the melatonin in the present aqueous compositions, in the absence of any excipients, co-solvents or diluents different from the physiological saline solution.
A pharmaceutical dissolver of suitable size was deaerated by insufflation of filtered nitrogen, then the dissolver was charged with water for injections at 85° C., to fill approximately 80% of the inner volume of the dissolver. After cooling water at 50° C., sodium chloride was added in such amount as to obtain a final concentration of 9mg/ml; the so obtained solution was deaerated by bubbling filtered nitrogen. […]

[2] = cited from earlier work
[3] = test system: free radicals (pro-inflammatory cytokines); conditions: ventilated infants with bronchopulmonary dysplasia; cited from earlier work
chronic lung disease = conditions: infants; cited from earlier work
pain = conditions: in combination with other drugs, endotracheal intubation in infants; cited from earlier work

- maximum value of concentration obtained in aqueous composition [1]: 0.4 mg/mL
SMILES: COc1ccc2[nH]cc(CCNC(C)=O)c2c1 [melatonin, N-acetyl-5-methoxytriptamine]
- solubility in ethanol ([2]; ethanol): fairly good solubility
- solubility in water ([2]; water): close to zero
- reduction of production of free radicals (pro-inflammatory cytokines) [3]: effective in reducing the production of these molecules
- efficacy in chronic lung disease (chronic lung disease): same efficacy has been demonstrated
- efficacy as an analgesic (pain): demonstrated the efficacy
